Laboratory results from patent US20230271938A1, “BENZIMIDAZOLES FOR USE IN THE TREATMENT OF CANCER AND INFLAMMATORY DISEASES” (Capella Therapeutics, Inc., priority 2015, published 2023).

Assays:
Assay type in all cases: cell-based
[1] = test system: HCC827 human NSCLC adenocarcinoma cells (mutant ERBB1, deletion of E746-A759 in exon 19); test: Cell proliferation assay, HCC827; details: for Ratio (Wild-type ERBB1/Mutant ERBB1) A431/HCC827: GI50 ratio A431/HCC827; for Ratio (Wild-type ERBB1/Mutant ERBB1) HEKn/HCC827: GI50 ratio HEKn/HCC827; for GI50: Homo sapiens, HCC827 cells, 72 hrs
Protocol: (§1) The biological activity of a test compound was determined using cell proliferation assays. The activity against wild-type ERBB 1 was determined using A431 human epidermoid carcinoma cells (ATCC) and human epidermal keratinocytes, neonatal, or HEKn cells (ATCC).
(§2) A431 cells were grown in DMEM (Invitrogen) supplemented with 10% FBS (Lonza), 1% penicillin-streptomycin, and 2 mM glutamine (Invitrogen). HEKn cells were grown in EPILIFE® (Invitrogen) supplemented with HKGS (Invitrogen). HCC827 and H1975 were cultured in RPMI1640 supplemented with 10% FBS (Lonza), 1% penicillin-streptomycin, and 2 mM glutamine (Invitrogen). Cells were maintained and propagated at 37° C. and 5% CO2 in a humidified cell culture incubator. Aliquots of cells from early passages were preserved for liquid nitrogen storage. Frozen vials of cells were thawed at 37° C. water bath. Cells were spun to remove freezing medium. The newly revived frozen cells were adapted in culture for 10 days before used for compound testing. Cells used in the assay were less than 20 subculture passages or 3 months in culture.
(§3) The test compounds were dissolved in dimethylsulfoxide (DMSO) and stored at -20° C. before testing. […] The cells were placed in a culture incubator overnight. Next day, test compounds in DMSO were added to the cells and placed back in the culture incubator for 72 hrs. In the meantime, the cell numbers at time zero of the compound treatment (T0) was measured by ENERCOUNT® (Codex BioSolutions). At the end of the compound treatment, the cell numbers were again measured by EnerCount as T72 values. The untreated controls (Ctrl) were cell numbers recorded from the 0.1% DMSO treatment. The percent growth inhibition by the test compound was calculated by the formula: (1- (T72-T0)/(Ctrl-T0)) x 100.
(§4) The results are summarized in Tables 1 and 2, wherein A represents a value no greater than 500 nM, B represents a value greater than 500 nM but no greater than 1 µM, C represents a value greater than 1 µM but no greater than 5 µM, and D represents a value greater than 5 µM; and wherein A′ represents a ratio of greater than 10, B′ represents a ratio of no greater than 10 but no less than 5, C′ represents a ratio of no greater than 5 but no less than 2, and D′ represents a ratio of no greater than 2.

[2] = test system: H1975 human NSCLC adenocarcinoma cells (drug-resistant mutant ERBB1, T790M in-cis with L858R); test: Cell proliferation assay, H1975; details: for Ratio (Wild-type ERBB1/Mutant ERBB1) A431/H1975: GI50 ratio A431/H1975; for Ratio (Wild-type ERBB1/Mutant ERBB1) HEKn/H1975: GI50 ratio HEKn/H1975; for GI50: Homo sapiens, NCI-H1975, H1975 cells, 72 hrs
Protocol: as §1, §2, §3, §4

[3] = test system: human epidermal keratinocytes, neonatal, or HEKn cells (wild-type ERBB1); test: Cell proliferation assay, HEKn; details: Keratinocyte, 72 hrs
Protocol: as §1, §2, §3, §4

[4] = test system: A431 human epidermoid carcinoma cells (wild-type ERBB1); test: Cell proliferation assay, A431; details: A-431, 72 hrs
Protocol: as §1, §2, §3, §4

[5] = numeric values, reference compounds

GI50 [1] | GI50 [2] | GI50 [4] | GI50 [1, 5] | SMILES | Ratio (Wild-type ERBB1/Mutant ERBB1) A431/HCC827 [1] | Ratio (Wild-type ERBB1/Mutant ERBB1) HEKn/HCC827 [1] | Ratio (Wild-type ERBB1/Mutant ERBB1) A431/H1975 [2] | Ratio (Wild-type ERBB1/Mutant ERBB1) HEKn/H1975 [2] | GI50 [3] | GI50 [3, 5]
< 0.5 µM | < 0.5 µM | 1 to 5 µM |  | Cc1cc(C(=O)Nc2nc3cc(OC(F)(F)F)cc(Cl)c3n2[C@@H]2CCCCN(C(=O)/C=C/CN(C)C)C2)ccn1 [Compound A5, (R,E)-N-(7-Chloro-1-(1-(4-(dimethylamino)but-2-enoyl)azepan-3-yl)-5-(trifluoromethoxy)-1H-benzo[d]imidazol-2-yl)-2-methylisonicotinamide] | A′ (A′ represents a ratio of greater than 10) | A′ (A′ represents a ratio of greater than 10) | C′ (C′ represents a ratio of no greater than 5 but no less than 2) | A′ (A′ represents a ratio of greater than 10) | 1 to 5 µM | 
< 0.5 µM | < 0.5 µM | 1 to 5 µM |  | C=CC(=O)N1CCCC[C@@H](n2c(NC(=O)c3ccnc(C(F)(F)F)c3)nc3ccc4c(c32)OCCO4)C1 [Compound B1-A, (R)-N-(1-(1-acryloylazepan-3-yl)-7,8-dihydro-1H-[1,4]dioxino[2′,3′:3,4]benzo[1,2-d]imidazol-2-yl)-2-(trifluoromethyl)isonicotinamide] |  |  |  |  | > 5 µM | 
< 0.5 µM | < 0.5 µM | 1 to 5 µM |  | C=CC(=O)N1CCCC[C@@H](n2c(NC(=O)c3ccnc(C)c3)nc3cc(OC(F)(F)F)cc(Cl)c32)C1 [Compound A4, (R)-N-(1-(1-Acryloylazepan-3-yl)-7-chloro-5-(trifluoromethoxy)-1H-benzo[d]imidazol-2-yl)-2-methylisonicotinamide] | A′ (A′ represents a ratio of greater than 10) | A′ (A′ represents a ratio of greater than 10) | C′ (C′ represents a ratio of no greater than 5 but no less than 2) | C′ (C′ represents a ratio of no greater than 5 but no less than 2) | 1 to 5 µM | 
< 0.5 µM | < 0.5 µM | < 0.5 µM |  | C=CC(=O)N1CCCC[C@@H](n2c(NC(=O)c3ccnc(C)c3)nc3cccc(OC4CCN(CC)CC4)c32)C1 [Compound A1, (R)-N-(1-(1-Acryloylazepan-3-yl)-7-((1-ethylpiperidin-4-yl)oxy)-1H-benzo[d]imidazol-2-yl)-2-methylisonicotinamide] | A′ (A′ represents a ratio of greater than 10) | A′ (A′ represents a ratio of greater than 10) | A′ (A′ represents a ratio of greater than 10) | A′ (A′ represents a ratio of greater than 10) | 1 to 5 µM | 
< 0.5 µM | < 0.5 µM | 1 to 5 µM |  | C=CC(=O)N1CCCC[C@@H](n2c(NC(=O)c3ccnc(C)c3)nc3ccc4c(c32)OCCO4)C1 [Compound C1-A, (R)-N-(1-(1-acryloylazepan-3-yl)-7,8-dihydro-1H-[1,4]dioxino[2′,3′:3,4]benzo[1,2-d]imidazol-2-yl)-2-methylisonicotinamide] |  |  |  |  | 1 to 5 µM | 
< 0.5 µM | < 0.5 µM | > 5 µM |  | C=CC(=O)N1CCC(Oc2cccc3nc(NC(=O)c4ccnc(C)c4)n([C@@H]4CCCCN(C(=O)C=C)C4)c23)CC1 [Compound A3, (R)-N-(1-(1-acryloylazepan-3-yl)-7-((1-acryloylpiperidin-4-yl)oxy)-1H-benzo[d]imidazol-2-yl)-2-methylisonicotinamide] | A′ (A′ represents a ratio of greater than 10) | A′ (A′ represents a ratio of greater than 10) | B′ (B′ represents a ratio of no greater than 10 but no less than 5) | A′ (A′ represents a ratio of greater than 10) | 1 to 5 µM | 
< 0.5 µM | < 0.5 µM | 1 to 5 µM |  | C=CC(=O)N1CCCC[C@@H](n2c(NC(=O)c3ccnc(OC)c3)nc3ccc4c(c32)OCCO4)C1 [Compound C2-A, (R)-N-(1-(1-acryloylazepan-3-yl)-7,8-dihydro-1H-[1,4]dioxino[2′,3′:3,4]benzo[1,2-d]imidazol-2-yl)-2-methoxyisonicotinamide] |  |  |  |  | 1 to 5 µM | 
 |  |  | 0.032 µM | C=CC(=O)Nc1cccc(Nc2nc(Nc3ccc(N4CCN(C(C)=O)CC4)cc3OC)ncc2C(F)(F)F)c1 [CO-1686] |  | A′ (A′ represents a ratio of greater than 10) |  | A′ (A′ represents a ratio of greater than 10) |  | 2.5 µM
